Where “and” joins values, the source holds several entries; their conditions need not be identical. Equal entries are not always repeated. Toxic doses and inconclusive results are not listed. How the source made its calls: active means survival T/C of 150% or more; inactive means T/C below 125% in these data.
System: CD2F1 mice, L1210 leukemia ip, survival T/C
Assay: NCI In Vivo Anticancer Drug Screen. Data for tumor model L1210 Leukemia (intraperitoneal) in CD2F1 (CDF1) mice
Details: higher = longer survival
Method in brief: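 Each value reflects a quotient of treated over vehicle control outcomes in mice with a transplanted tumor.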

[1] = endpoint: mean survival time, dose: 100.0 mg/kg/injection, schedule: Q01DX009 (ip), vehicle: saline with Tween-80
[2] = endpoint: mean survival time, dose: 200.0 mg/kg/injection, schedule: Q01DX009 (ip), vehicle: saline with Tween-80
[3] = endpoint: mean survival time, dose: 100.0 mg/kg/injection, schedule: Q04DX003 (ip), vehicle: saline with Tween-80
[4] = endpoint: mean survival time, dose: 200.0 mg/kg/injection, schedule: Q04DX003 (ip), vehicle: saline with Tween-80
[5] = endpoint: mean survival time, dose: 400.0 mg/kg/injection, schedule: Q04DX003 (ip), vehicle: saline with Tween-80
[6] = endpoint: mean survival time, dose: 12.5 mg/kg/injection, schedule: Q01DX009 (ip), vehicle: saline with Tween-80
[7] = endpoint: mean survival time, dose: 25.0 mg/kg/injection, schedule: Q01DX009 (ip), vehicle: saline with Tween-80
[8] = endpoint: mean survival time, dose: 50.0 mg/kg/injection, schedule: Q01DX009 (ip), vehicle: saline with Tween-80
[9] = endpoint: mean survival time, dose: 100.0 mg/kg/injection, schedule: Q01DX001 (ip), vehicle: saline with Tween-80
[10] = endpoint: mean survival time, dose: 100.0 mg/kg/injection, schedule: Q01DX001 (ip), vehicle: saline
[11] = endpoint: mean survival time, dose: 400.0 mg/kg/injection, schedule: Q01DX009 (ip), vehicle: saline with Tween-80
[12] = endpoint: mean survival time, dose: 200.0 mg/kg/injection, schedule: Q01DX001 (ip), vehicle: saline with Tween-80
[13] = endpoint: mean survival time, dose: 400.0 mg/kg/injection, schedule: Q01DX001 (ip), vehicle: saline with Tween-80
[14] = endpoint: mean survival time, dose: 100.0 mg/kg/injection, schedule: Q04DX002 (ip), vehicle: saline with Tween-80
[15] = endpoint: mean survival time, dose: 200.0 mg/kg/injection, schedule: Q04DX002 (ip), vehicle: saline with Tween-80
[16] = endpoint: mean survival time, dose: 25.0 mg/kg/injection, schedule: Q04DX002 (ip), vehicle: saline with Tween-80
[17] = endpoint: mean survival time, dose: 50.0 mg/kg/injection, schedule: Q04DX002 (ip), vehicle: saline with Tween-80

Measured: T/C

COc1ccc2c(c1)CCC(c1ccccc1)=C2c1ccc(OCCN2CCCC2)cc1
inactive: endpoint: mean survival time, dose: 6.0 mg/kg/injection, schedule: Q01DX009 (ip), vehicle: saline with Tween-80 103 % of control | endpoint: mean survival time, dose: 12.0 mg/kg/injection, schedule: Q01DX009 (ip), vehicle: saline with Tween-80 106 % of control | endpoint: mean survival time, dose: 24.0 mg/kg/injection, schedule: Q01DX009 (ip), vehicle: saline with Tween-80 101 % of control | endpoint: mean survival time, dose: 40.0 mg/kg/injection, schedule: Q04DX003 (ip), vehicle: saline with Tween-80 104 % of control | endpoint: mean survival time, dose: 80.0 mg/kg/injection, schedule: Q04DX003 (ip), vehicle: saline with Tween-80 101 % of control

CC(C)C(=O)Nc1ccc(Cl)cc1
inactive: [1] 100 % of control | [2] 97 % of control

c1ccc2nc(NCCSSCCNc3cnc4ccccc4n3)cnc2c1
inactive: endpoint: mean survival time, dose: 100.0 mg/kg/injection, schedule: Q01DX009 (ip), vehicle: saline sonified 92 % of control | [3] 94 % of control | endpoint: mean survival time, dose: 200.0 mg/kg/injection, schedule: Q01DX009 (ip), vehicle: saline sonified 93 % of control | [4] 101 % of control | endpoint: mean survival time, dose: 400.0 mg/kg/injection, schedule: Q01DX009 (ip), vehicle: saline sonified 87 % of control | [5] 96 % of control

CCn1c(=O)c2nc(Br)n(C3OCC(OC(C)=O)C(OC(C)=O)C3OC(C)=O)c2n(CC)c1=O (stereo not given)
inactive: endpoint: mean survival time, dose: 12.5 mg/kg/injection, schedule: Q01DX005 (ip), vehicle: distilled water + Tween-80 104 % of control | endpoint: mean survival time, dose: 25.0 mg/kg/injection, schedule: Q01DX005 (ip), vehicle: distilled water + Tween-80 104 % of control | endpoint: mean survival time, dose: 50.0 mg/kg/injection, schedule: Q01DX005 (ip), vehicle: distilled water + Tween-80 100 % of control | endpoint: mean survival time, dose: 100.0 mg/kg/injection, schedule: Q01DX005 (ip), vehicle: distilled water + Tween-80 93 % of control | endpoint: mean survival time, dose: 200.0 mg/kg/injection, schedule: Q01DX005 (ip), vehicle: distilled water + Tween-80 88 % of control

c1cnc2c(c1)ccc1ncccc12
inactive: [6] 91 % of control | [7] 109 % of control | [8] 96 % of control

C1CCC(CCC2CCCC[N-]2)[N-]C1.[I][Co][I] (stereo not given)
inactive: endpoint: mean survival time, dose: 25.0 mg/kg/injection, schedule: Q01DX001 (ip), vehicle: saline with Tween-80 95 % of control | endpoint: mean survival time, dose: 50.0 mg/kg/injection, schedule: Q01DX001 (ip), vehicle: saline with Tween-80 86 % of control | [9] 123 % of control | [10] 103 % of control

Cc1cc(SCSc2cc(C)[o+]c(C)c2)cc(C)[o+]1
inactive: endpoint: mean survival time, dose: 100.0 mg/kg/injection, schedule: Q04DX003 (ip), vehicle: Klucel (hydroxypropylcellulose) (HPC) 100 % of control | endpoint: mean survival time, dose: 200.0 mg/kg/injection, schedule: Q04DX003 (ip), vehicle: Klucel (hydroxypropylcellulose) (HPC) 104 % of control | endpoint: mean survival time, dose: 400.0 mg/kg/injection, schedule: Q04DX003 (ip), vehicle: Klucel (hydroxypropylcellulose) (HPC) 102 % of control

NC(=O)c1cc(=O)[nH]o1
inactive: [1] 102 % of control | [2] 96 % of control | [11] 107 % of control

COC(=C\c1ccccc1)/C(=N/Nc1ccc([N+](=O)[O-])cc1[N+](=O)[O-])c1ccccc1
inactive: [9] 101 % of control | [12] 109 % of control | [13] 109 % of control

O=[N+]([O-])c1ccc(O/N=C(\CN2CCOCC2)c2ccc(Cl)cc2)c([N+](=O)[O-])c1
inactive: [3] 94 % of control | [4] 86 % of control | [5] 90 % of control

CC(=O)Oc1ccc(OC(C)=O)c2c1C(=O)C=CC2=O
inactive: endpoint: mean survival time, dose: 0.78 mg/kg/injection, schedule: Q04DX002 (ip), vehicle: alcohol 92 % of control | endpoint: mean survival time, dose: 3.12 mg/kg/injection, schedule: Q04DX002 (ip), vehicle: alcohol 86 % of control

CCCC(=O)NN=C(C)C
inactive: endpoint: mean survival time, dose: 12.5 mg/kg/injection, schedule: Q04DX003 (ip), vehicle: saline 105 % of control | endpoint: mean survival time, dose: 25.0 mg/kg/injection, schedule: Q04DX003 (ip), vehicle: saline 104 % of control | endpoint: mean survival time, dose: 50.0 mg/kg/injection, schedule: Q04DX003 (ip), vehicle: saline 107 % of control

CCOP(=S)(NCCOC)OCC
inactive: [3] 101 % of control | [4] 101 % of control | [5] 100 % of control

O=C(O)c1c(Cl)cc(Cl)c(-c2c(Cl)cc(Cl)c(C(=O)O)c2Cl)c1Cl
inactive: [1] 103 % of control | [3] 92 % of control | [2] 98 % of control | [4] 98 % of control | [11] 104 % of control | [5] 100 % of control

COc1cc(/C=N\O)nc(-c2ccccn2)c1
inactive: [10] 107 % of control | endpoint: mean survival time, dose: 200.0 mg/kg/injection, schedule: Q01DX001 (ip), vehicle: saline 98 % of control | endpoint: mean survival time, dose: 400.0 mg/kg/injection, schedule: Q01DX001 (ip), vehicle: saline 97 % of control

O=c1[nH]c(=O)n(CCCCOc2ccccc2)cc1-c1ccccc1
inactive: [9] 98 % of control | [12] 101 % of control | [13] 96 % of control

COC(Cn1cnc2c(N)ncnc21)OC
inactive: endpoint: mean survival time, dose: 100.0 mg/kg/injection, schedule: Q04DX003 (ip), vehicle: saline 110 % of control | endpoint: mean survival time, dose: 200.0 mg/kg/injection, schedule: Q04DX003 (ip), vehicle: saline 98 % of control | endpoint: mean survival time, dose: 400.0 mg/kg/injection, schedule: Q04DX003 (ip), vehicle: saline 112 % of control

Cc1csc2nccc(Cl)c12
inactive: [9] 100 % of control | [12] 112 % of control | [13] 97 % of control

CC1CCC2[S][Sn]3([NH]C2C1)[NH]C1CC(C)CCC1[S]3 (stereo not given)
inactive: [14] 106 % of control | [15] 111 % of control

CCOC(/C=C/c1ccccc1)OCC
inactive: endpoint: mean survival time, dose: 100.0 mg/kg/injection, schedule: Q01DX009 (ip), vehicle: saline 100 % of control | endpoint: mean survival time, dose: 200.0 mg/kg/injection, schedule: Q01DX009 (ip), vehicle: saline 94 % of control | endpoint: mean survival time, dose: 400.0 mg/kg/injection, schedule: Q01DX009 (ip), vehicle: saline 103 % of control

COc1cnnc2ccccc12
inactive: [3] 104 % of control | [4] 103 % of control | [5] 92 % of control

C[C@]12CC[C@H](OC(=O)Cc3ccc(N(CCCl)CCCl)cc3)CC1=CC[C@@H]1[C@@H]2CC[C@]2(C)C(=O)CC[C@@H]12
inactive: [9] 92 % of control | [1] 100 % of control | [12] 90 % of control | [2] 107 % of control | [13] 96 % of control | [11] 111 % of control

COC(=O)C(Br)c1ccccc1 (stereo not given)
inactive: [9] 108 % of control | [12] 91 % of control | [13] 97 % of control

COc1cc(N)ccc1NC(=O)c1ccccc1
inactive: endpoint: mean survival time, dose: 6.25 mg/kg/injection, schedule: Q01DX009 (ip), vehicle: saline with Tween-80 94 % of control | [6] 94 % of control and 100 % of control | [7] 93 % of control and 105 % of control

CCOC(=O)C(O)C(C)(Cl)c1ccccc1 (stereo not given)
inactive: [16] 98 % of control | [17] 102 % of control | [14] 95 % of control | [15] 95 % of control

O=C1N[C@H]2[C@H](O)[C@H](O)[C@@H](O)[C@H](O)[C@@H]2c2cc3c(c(O)c21)OCO3
inactive: endpoint: median survival time, dose: 0.38 mg/kg/injection, schedule: Q01DX009 (ip), vehicle: saline + alcohol 120 % of control | endpoint: median survival time, dose: 0.75 mg/kg/injection, schedule: Q01DX009 (ip), vehicle: saline + alcohol 122 % of control | endpoint: median survival time, dose: 1.5 mg/kg/injection, schedule: Q01DX009 (ip), vehicle: saline + alcohol 121 % of control

O=C(O)c1c(Sc2ccccc2)cccc1Sc1ccccc1
inactive: [16] 93 % of control | [17] 93 % of control | [9] 89 % of control | [14] 93 % of control | [12] 93 % of control | [15] 95 % of control | [13] 90 % of control | endpoint: mean survival time, dose: 400.0 mg/kg/injection, schedule: Q04DX002 (ip), vehicle: saline with Tween-80 87 % of control

CCS(=O)(=O)OC1CCCCCCC1NC(=O)c1ccccc1 (stereo not given)
inactive: [8] 100 % of control | [1] 97 % of control | [3] 104 % of control | [4] 98 % of control

CC1CC=C(/C=N/Nc2ccc([N+](=O)[O-])cc2[N+](=O)[O-])C(C)O1 (stereo not given)
inactive: [9] 107 % of control | [12] 101 % of control | [13] 98 % of control

CSc1nc(NC2OCC(O)C(O)C2O)c(I)c(=O)n1C (stereo not given)
inactive: endpoint: median survival time, dose: 12.5 mg/kg/injection, schedule: Q01DX005 (ip), vehicle: saline with Tween-80 103 % of control | endpoint: median survival time, dose: 25.0 mg/kg/injection, schedule: Q01DX005 (ip), vehicle: saline with Tween-80 101 % of control | endpoint: median survival time, dose: 50.0 mg/kg/injection, schedule: Q01DX005 (ip), vehicle: saline with Tween-80 101 % of control | endpoint: median survival time, dose: 100.0 mg/kg/injection, schedule: Q01DX005 (ip), vehicle: saline with Tween-80 100 % of control | endpoint: median survival time, dose: 200.0 mg/kg/injection, schedule: Q01DX005 (ip), vehicle: saline with Tween-80 100 % of control

From PubChem BioAssay AID256 (DTP/NCI, 2004)
